PubChem BioAssay (NCI)
Where “and” joins values, the source holds several entries; their conditions need not be identical. Equal values may be shown once.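 Growth conditions: 96-well plates. Treatment: test compound, 48 hours, 5 concentrations. Analysis: linear interpolation between bracketing concentrations; unreached endpoints set to highest concentration. At the GI50, growth is halved. Definition used: TGI = concentration required for complete inhibition of growth.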

Legend:
Experiment in all cases: NCI anticancer screen, dose series, 48 h
[1] = tested on: A549 NSCLC
[2] = tested on: CAKI-1 renal
[3] = tested on: COLO 205 colon
[4] = tested on: HOP-92 NSCLC
[5] = tested on: HT29 colon
[6] = tested on: RPMI-8226 leukemia
[7] = tested on: SF-295 CNS
[8] = tested on: SF-539 CNS
[9] = tested on: SK-OV-3 ovarian
[10] = tested on: HCT-15 colon

SMILES	TGI [1]	TGI [2]	TGI [3]	TGI [4] [µM]	TGI [5] [µM]	TGI [6]	TGI [7]	TGI [8]	TGI [9]	TGI [10] [µM]	GI50 [1] [µM]	GI50 [2]	GI50 [10]	GI50 [4] [µM]	GI50 [5] [µM]	GI50 [6]	GI50 [7]	GI50 [8]	GI50 [9]	GI50 [3] [µM]
CNS(=O)(=O)NN(C)S(=O)(=O)c1ccc(C)cc1	> 100 µM	> 100 µM	> 100 µM	> 100	> 100	> 100 µM	> 100 µM	> 100 µM	> 100 µM	–	–	–	–	–	–	–	–	–	–	–
COc1ccc(Nc2nc3c(N)cc(C(F)(F)F)cc3nc2-c2ccccc2)cc1	> 100 µM	> 100 µM	> 100 µM	> 100	–	–	> 100 µM	> 100 µM	> 100 µM	> 100	–	–	–	–	–	–	–	–	–	–
C=C1CCC2C3(C)COC(c4cccc(Cl)c4)OC3CCC2(C)C1/C=C/C1=CCOC1=O (stereo unspecified)	> 100 µM	> 100 µM	–	> 100	> 100	> 100 µM	> 100 µM	> 100 µM	> 100 µM	> 100	3.31	7.78 µM	6.75 µM	> 100	5.32	2.9 µM	3.59 µM	48.5 µM	> 100 µM	–
CCCCCNC(=O)C1C(=O)N(CCCCC)C(=O)/C1=N\N (stereo unspecified)	> 100 µM	–	> 100 µM	95.4	> 100	–	> 100 µM	> 100 µM	–	> 100	–	–	–	–	–	–	–	–	–	–
COc1ccc(C(=O)Nc2ccccc2)cc1[N+](=O)[O-]	> 100 µM	> 100 µM	> 100 µM	–	> 100	> 100 µM	> 100 µM	> 100 µM	> 100 µM	> 100	–	–	–	–	–	–	–	–	–	–
Cc1ccc(S(=O)(=O)OC(C=O)C(O)C(O)COC(c2ccccc2)(c2ccccc2)c2ccccc2)cc1 (stereo unspecified)	33.3 µM	36.6 µM	–	–	24.9	36.9 µM	24.8 µM	30.8 µM	28.4 µM	27.1	–	–	–	–	–	–	–	–	–	–
COc1cc2nc(-c3ccc(Cl)cc3)cc(OCCCN3CCC(O)CC3)c2cc1OC	14.8 µM	5.24 µM	4.11 µM	6.79	3.81	–	3.58 µM	6.78 µM	21.8 µM	12.5	2.2	0.416 µM	0.763 µM	1.25	0.7	–	1.66 µM	2.28 µM	3.17 µM	0.532
Cc1ccc(NC(=O)CCC(=O)C2CC(=O)CCC2=O)cc1C (stereo unspecified)	> 100 µM	> 100 µM	> 100 µM	> 100	> 100	–	> 100 µM	> 100 µM	> 100 µM	> 100	–	–	–	–	–	–	–	–	–	–
CN(C)CC1CCCC(CN(C)C)C1=O (stereo unspecified)	48.1 µM and > 63.6 µM	3.12 µM and 0.858 µM	3.4 µM and 9.47 µM	2.26	–	1.53 µM and 2.36 µM	35.7 µM and > 100 µM	21.9 µM and 5.78 µM	31.8 µM and > 58.3 µM	–	–	1.39 µM and 0.259 µM	1.28 µM and 8.54 µM	–	–	0.125 µM and 0.458 µM	19.3 µM and > 100 µM	11.3 µM and 1.75 µM	17.8 µM and > 44 µM	–
COC12c3ccccc3-c3ccccc3C1[C@@H](C(=O)O)[C@H]2C(=O)O (stereo partly specified)	–	> 10 µM	> 10 µM	> 10	> 10	> 10 µM	> 10 µM	> 10 µM	> 10 µM	> 10	–	–	–	–	–	–	–	–	–	–
CC1(C)CC(C2CC(C)(C)CC(C)(C)[C@H]2O)[C@@H](O)C(C)(C)C1 (stereo partly specified)	> 100 µM	–	> 100 µM	–	> 100	> 100 µM	> 100 µM	> 100 µM	> 100 µM	> 100	–	–	–	–	–	–	–	–	–	–
Cn1cccc1C1CC(=O)N(CCC[Se]C#N)C1=O (stereo unspecified)	5.17 µM	3.57 µM	4.88 µM	–	28.6	5.04 µM	3.29 µM	3.66 µM	6.72 µM	6.43	2.07	1.92 µM	2.35 µM	–	2.72	2.2 µM	1.81 µM	1.96 µM	3.22 µM	2.1
COC1C2c3ccccc3C(C#N)(Cc3ccc4c(c32)OCO4)N1C(=O)c1ccccc1 (stereo unspecified)	–	–	82.6 µM	> 100	> 100	> 100 µM	> 100 µM	> 100 µM	> 100 µM	> 100	–	–	–	–	–	–	–	–	–	–
CCN1N=CSC12C(=O)N(c1ccccc1)C(=O)N2c1ccccc1 (stereo unspecified)	> 100 µM	> 100 µM	> 100 µM	> 100	> 100	–	> 100 µM	> 100 µM	> 100 µM	–	–	–	–	–	–	–	–	–	–	–
O=C1/C(=C/c2ccccc2Cl)COc2ccccc21	55.8 µM	–	40.1 µM	29.4	45.1	22 µM	37.6 µM	31 µM	72.5 µM	–	–	–	–	–	–	–	–	–	–	–
COC(=O)Oc1nn(C(=O)OC)c(=O)c2ccccc12 (tested in a mixture with another compound)	> 100 µM	> 100 µM	> 100 µM	–	> 100	> 100 µM	> 100 µM	> 100 µM	> 100 µM	> 100	–	–	–	–	–	–	–	–	–	–
NC(=NCc1ccccc1)N/N=C\c1ccnc2ccccc12	36.9 µM	–	3.21 µM	7.86	25.4	4.14 µM	32.2 µM	29.2 µM	29.7 µM	37.4	–	–	–	–	–	–	–	–	–	–
Cn1cc(-c2nonc2-c2cn(C)c3ccc(Br)cc23)c2ccccc21	> 100 µM	> 100 µM	–	> 100	> 100	> 100 µM	> 100 µM	6.13 µM	> 100 µM	> 100	5.29	4.33 µM	2.17 µM	5.16	3.26	3.32 µM	2.89 µM	2.19 µM	7.52 µM	–
CC(=O)[CH-]C(=O)c1ccccc1.CC(=O)[CH-]C(=O)c1ccccc1.[O-]Cc1cccs1.[O-]Cc1cccs1.[Ti+4]	> 100 µM	> 100 µM	–	–	46.6	71.3 µM	71.9 µM	> 100 µM	> 100 µM	46.2	97.9	71.6 µM	20 µM	–	17.5	27.1 µM	10.6 µM	71.2 µM	> 100 µM	–
